In US20240240226A1, “FLUOROGENIC ASSAY FOR RAPID SCREENING OF BACTERIAL BETA-LACTAMASE ACTIVITY” (The Board of Trustees of the Leland Stanford Junior …, priority 2021, published 2024):

What was measured:
[1] = molecular target: T1, horseradish peroxidase (HRP) (Armoracia rusticana, UniProt P00433); assay: Amplex red fluorescence turn-on with HRP and H2O2; format: biochemical; details: HRP 1 unit/mL, H2O2 1 uM, 10 μM AR in PBS, room temperature, 5 min
T1 sequence (P00433 31-338): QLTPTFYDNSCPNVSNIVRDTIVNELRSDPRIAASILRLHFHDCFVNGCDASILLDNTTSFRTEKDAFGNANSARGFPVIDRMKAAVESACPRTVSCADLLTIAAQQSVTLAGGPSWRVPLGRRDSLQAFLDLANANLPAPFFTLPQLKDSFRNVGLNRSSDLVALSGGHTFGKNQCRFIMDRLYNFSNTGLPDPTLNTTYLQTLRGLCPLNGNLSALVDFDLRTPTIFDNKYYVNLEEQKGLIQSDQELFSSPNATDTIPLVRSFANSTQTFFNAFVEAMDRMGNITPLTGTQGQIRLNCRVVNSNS
Procedure: FIG. 6 illustrates the fluorescence spectra of CDA and Amplex red. a) Fluorescent emission spectra of PBS, CDA, and AR (10 μM probes in PBS; excitation, 525 nm). b) Fluorescent emission spectra of CDA treated with esterase (1 μg/mL), TEM-1 Bla (100 nM) and H2O2 (1 mM) at room temperature for 8 hours. c) Fluorescent emission spectra of AR and AR treated with HRP and H2O2 at room temperature for 5 min (10 μM AR in PBS, HRP 1 unit/mL, H2O2 1 uM) (excitation, 525 nm). A.U. indicates arbitrary units.
The synthesis of CDA is outlined in Scheme 1 (FIG. 28). DARR was prepared from resazurin sodium salt through reduction and acetylation (Han et al., Chemistry (2016) 11: 818-822) and conjugated to the oxidized cephalosporin chloride with a self-immolative linker 4-mercaptobenzyl alcohol to afford CDA after reduction and deprotection. When incubated with a recombinant class A cephalosporin-hydrolyzing β-lactamase TEM-1 (TEM-1 Bla, FIGS. 7 and 8), esterase, and hydrogen peroxide (H2O2), CDA generated approximately 1200-fold fluorescence turn-on (FIGS. 1b and 6b).

[2] = system: esterase; assay: DARR response to esterase and H2O2; format: biochemical; details: esterase 1 μg/mL, different concentrations of H2O2, room temperature
Procedure: FIG. 11 illustrates that esterase sensitizes DARR in response to H2O2. a) Structure of DARR and its hydrolysis by esterase and oxidation into fluorescent resorufin by H2O2. b) Fluorescence enhancement of DARR treated with esterase (1 μg/mL) and different concentrations of H2O2 at room temperature. Data were collected on a Tecan Safire microplate reader with excitation at 570 nm and emission at 600 nm. A.U. indicates arbitrary units.
As oxidation is the essential step in converting β-lactamase/esterase processed CDA to resorufin, the stability of CDA was evaluated in different concentrations of H2O2 (FIG. 2a). […] The sulfur center of CDA was also stable in H2O2 (1 mM) (FIG. 9).

[3] = pH=8; cited from earlier work

CC(=O)N1c2ccc(O)cc2Oc2cc(O)ccc21 [Amplex red, 10-Acetyl-3,7-dihydroxyphenoxazine]
fluorescence turn-on [1]: 413 fold

CC(=O)Oc1ccc2c(c1)Oc1cc(OC(C)=O)ccc1N2 [DARR, 10H-phenoxazine-3,7-diyl diacetate]
response to esterase [2]: fast response to esterase

O=c1ccc2nc3ccc(O)cc3oc-2c1 [resorufin]
fluorescence quantum yield ϕ [3]: 0.75
